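The compound was tested at five concentrations on cells cultured in 96-well plates, with a 48-hour exposure period. GI50 is the concentration that inhibits growth by half.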 Active and inactive are the calls of the source. No stated cut-off is given here; in the data, active = GI50 up to about 1.1 µM and inactive = higher. Bounds are passed on as bounds.

Some test systems named below: NCI-H23; UACC-62; HOP-62; SN12C; SW-620; COLO 205; MDA-MB-231; A549; SK-OV-3; HCC 2998; NCI-H460; SK-MEL-5; NCI/ADR-RES; A498; T47D; RXF 393; SNB-75; RPMI-8226; SK-MEL-28; MOLT-4.
Common to all, as to assay: DTP human tumour cell line panel, 48 h

The GI50 is the concentration giving 50% growth inhibition. In the case of `O=C1c2cc([N+](=O)[O-])sc2C(=O)c2ccsc21`, the 50% growth inhibitory concentration (GI50) in the assay with NCI-H23 is 0.352 µM (active); with UACC-62, 0.204 µM (active); in the assay with HOP-62 it was 0.227 µM (active); in the assay with SN12C it was 0.327 µM (active); with SW-620, 0.245 µM (active); in the assay with COLO 205, 0.525 µM (active). The GI50 with MDA-MB-231 is 0.266 µM (active); with A549, 1.83 µM (inactive); with SK-OV-3, 1.58 µM (inactive); with HCC 2998, 0.52 µM (active); in the assay with NCI-H460, 0.306 µM (active); in the assay on SK-MEL-5, 0.17 µM (active). Moreover, the GI50 was 0.824 µM (active) in the assay on NCI/ADR-RES; 2.14 µM (inactive) with A498; 0.478 µM (active) in the assay on T47D; 0.486 µM (active) in the assay on RXF 393; 1.4 µM (inactive) in the assay with SNB-75; 0.206 µM (active) in the assay on RPMI-8226. Besides, the GI50 is 0.283 µM (active) with SK-MEL-28 and 0.215 µM (active) in the assay with MOLT-4.

As to `CC(C)(C)[Si](C)(C)OCC1OC(n2cnc3c(=O)[nH]cnc32)CC1O` (stereo not given), the GI50 in the assay with NCI-H23, in the assay with UACC-62, in the assay with HOP-62, in the assay on SN12C, in the assay with SW-620 and in the assay with COLO 205 was > 100 µM (inactive) throughout. In addition, the GI50 in the assay on MDA-MB-231 was > 100 µM (inactive); in the assay on A549, > 100 µM (inactive); in the assay with SK-OV-3, > 100 µM (inactive); in the assay with HCC 2998, > 100 µM (inactive); in the assay on NCI-H460, > 100 µM (inactive); in the assay with SK-MEL-5 it was 60.5 µM (inactive). Moreover, the GI50 with NCI/ADR-RES was > 100 µM (inactive); in the assay with A498 it was > 100 µM (inactive); in the assay on T47D, > 100 µM (inactive); with RXF 393 it was > 100 µM (inactive); with SNB-75, 20.8 µM (inactive); in the assay with RPMI-8226, > 100 µM (inactive). Moreover, the GI50 in the assay on SK-MEL-28 and with MOLT-4 was > 100 µM (inactive) in each case.

Consider `CCN(CC)CCNc1ccc2ncn3c4ccc(O)cc4c(=O)c1c23`, for which the GI50 in the assay on NCI-H23 was 0.194 µM (active); in the assay with UACC-62, 1.25 µM (inactive); with HOP-62 it was 0.141 µM (active); with SN12C it was 0.22 µM (active); in the assay on SW-620, 0.216 µM (active); in the assay with COLO 205 it was 0.769 µM (active). For the same compound, the GI50 was 1.65 µM (inactive) with MDA-MB-231; 0.0248 µM (active) in the assay with A549; 0.785 µM (active) in the assay on SK-OV-3; 2.51 µM (inactive) with HCC 2998; 0.0291 µM (active) in the assay with NCI-H460; 0.289 µM (active) in the assay with SK-MEL-5. The GI50 with NCI/ADR-RES was 2.81 µM (inactive); in the assay with A498 it was 1.12 µM (inactive); in the assay on T47D, 12.2 µM (inactive); in the assay with RXF 393, 0.178 µM (active); in the assay with SNB-75, 0.652 µM (active); in the assay on RPMI-8226 it was 0.267 µM (active). Also, the values for the GI50 in the assay on SK-MEL-28 and with MOLT-4 were 7.76 µM (inactive) and 0.0146 µM (active), respectively.

`C/C(=N\c1cccc(Cl)c1)c1ccncc1`: the GI50 in the assay on NCI-H23 is > 100 µM (inactive); in the assay on UACC-62 it was 28.3 µM (inactive); in the assay on HOP-62 it was > 100 µM (inactive); in the assay with SN12C it was > 100 µM (inactive); with SW-620 it was > 100 µM (inactive); in the assay on COLO 205 it was > 100 µM (inactive). Besides, the GI50 in the assay with MDA-MB-231, in the assay on A549, in the assay with SK-OV-3, in the assay on HCC 2998, in the assay on NCI-H460 and in the assay with SK-MEL-5 was > 100 µM (inactive) each time. Also, the GI50 in the assay with NCI/ADR-RES, in the assay on A498, in the assay with T47D, in the assay with RXF 393, with SNB-75 and in the assay on RPMI-8226 was > 100 µM (inactive) throughout. Besides, the GI50 in the assay with SK-MEL-28 and in the assay on MOLT-4 was > 100 µM (inactive) throughout.

For the origin of these results see ChEMBL document CHEMBL1201862, “PubChem BioAssay data set” (2004).
